# Test: gradient 5% acetonitrile 3 min, to 50% in 2 min, to 85% in 15 min, held 3 min, 100 µL/min
# Details: column: Zorbax Extend-C18 2.1 x 50 mm; eluents: water / acetonitrile, 0.1% formic acid
# Summary of the method: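 The system's dead and dwell volumes were 40 μL and 900 μL, with a Zorbax Extend-C18 column (2.1 × 50 mm, 1.8 μm) run at 100 μL/min in water and acetonitrile containing 0.1% formic acid each. Pure standards were analyzed in mixtures of ~100 molecules by HPLC–quadrupole time-of-flight mass spectrometry in positive and negative ionization mode. Retention time was assigned from computationally picked, manually inspected adduct peaks.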
row,Compound,RP-LC retention time [s]
1,O=C(NCc1cccc(F)c1)N1C[C@@H]2C[C@H](NS(=O)(=O)c3cccnc3)[C@H]1C2,688
2,CCC(=O)N1c2ccc(S(=O)(=O)N3CCCCC3)cc2CC1C(=O)NCCc1ccccc1 (stereo not drawn),720
3,Cc1ccc(NC(=O)Cc2csc3nc(-c4ccccc4)cn23)c(Br)c1,872
4,c1ccc(-c2nc3ccccc3s2)nc1,1010
5,Cc1nc2cc(N3CC(C(=O)Nc4ccc(C)c(C)c4)CC3=O)ccc2o1 (stereo not drawn),614
6,Cc1ccccc1Cc1nc(-c2cccc(-c3ccn[nH]3)c2)no1,985
7,O=C(C1CCCN(c2ccc(-c3ccccc3)nn2)C1)N1CCN(c2ccccn2)CC1 (stereo not drawn),576
8,CCn1c(=O)c2cc(C(=O)Nc3cccc(C(=O)OC)c3)nn2c2ccccc21,977
9,c1ccc(OCc2nc(-c3ccc4c(c3)ncn4CCN3CCCCC3)no2)cc1,652
10,Cc1ccc(-c2nc3cnc(Br)cn3c2Nc2ccc3c(c2)OCCO3)cc1,956
11,Cc1cccc(-c2noc(Cn3ncn4nc(-c5ccc(F)cc5)cc4c3=O)n2)c1,1150
12,Cc1cc(NC(=O)c2cc(Cl)sc2Cl)n(C(C)C)n1,810
13,CCOc1ccc2cccc(NC(=O)C3CCN(S(C)(=O)=O)CC3)c2n1,864
14,Cc1sc2ccn(C)c(=O)c2c1C(=O)N1CCN(c2ccccc2)CC1,728
15,COc1cc(NC(=O)Nc2nccn(-c3ccc(Cl)cc3)c2=O)cc(OC)c1,970
16,CNC(=O)[C@@H]1C[C@@H](O)CN1C1CCN(C(=O)CC2=CCCCC2)CC1,574
17,CCCN(CC1CCOC1)C(=O)Nc1ccccc1C (stereo not drawn),768
18,CCNC(=O)C1CC(=O)N(C2CCCCC2)C1 (stereo not drawn),623
19,CC(C)CC(=O)N1CCc2c([nH]c3ccccc23)C12C(=O)N(C)c1ccc(Br)cc12 (stereo not drawn),1040

row,Compound,RP-LC retention time [s]
1,Cn1nccc1-c1cccc(-c2noc(CNC(=O)Cc3ccc(Cl)cc3)n2)c1,871
2,Cc1cc(C)n(CC(=O)NCCc2c[nH]c3ccccc23)c(=O)n1,570
3,COC(=O)C(C)NC(=O)NCc1cccn1Cc1ccccc1F (stereo not drawn),804
4,COc1cccc(CNC(=O)c2ccc3c(c2)nc2n3CCN(Cc3ccccc3)C2=O)c1,777
5,Cc1ccc(-c2csc(-c3cccn3CC(=O)NCC3CCCO3)n2)cc1 (stereo not drawn),1020
6,O=C1CCCC(=O)N1CCS(=O)(=O)NCc1cccc(Oc2ccc(F)cc2)c1,840
7,CN1CCN(C(=O)O[C@H]2c3nccnc3C(=O)N2c2ccc(Cl)cn2)CC1,660
8,CCOc1ccc(NC(=O)NCc2nc(-c3ccc(OCC)cc3)oc2C)cc1,656
9,COc1ccc(CNC(=O)c2cn3ccc(C)cc3n2)c(OC)c1,730
10,Cn1cnc(S(=O)(=O)NCCc2noc(-c3ccccc3)n2)c1,703
11,CCC(C)NC(=O)CC1Sc2ncccc2N(C)C1=O (stereo not drawn),632
12,CCc1noc(NC(C)=O)c1-c1ccc(C)c(S(=O)(=O)Nc2c(C)cc(C)cc2C)c1,904
13,Cc1ccc(C(=O)Nc2nc(-c3ccccc3)cs2)cc1[N+](=O)[O-],1090
14,COc1ccc(-c2nnc(-c3ccccc3)o2)cc1S(=O)(=O)N1CCCCCC1,1070
15,O=C(c1nnc(-c2ccc(S(=O)(=O)N3CCOCC3)cc2)o1)N1CCC(Cc2ccccc2)CC1,1080
16,Cc1ccc(N2CC(c3noc(-c4ccc(C)nc4)n3)CC2=O)cc1 (stereo not drawn),799
17,Cc1ccccc1Cc1nc(-c2cccc(-c3ccnn3C)c2)no1,1110
18,CCOC(=O)c1ccc(NC(=O)Cn2nc(N3CCCC(C)C3)c3ccccc3c2=O)cc1 (stereo not drawn),1200
19,Cc1ccc(-c2nc(C3CC(=O)N(c4ccc(F)cc4)C3)no2)c(C)c1 (stereo not drawn),1120

row,Compound,RP-LC retention time [s]
1,O=C(Cn1cccc1-c1nnc(-c2ccccc2)o1)N1CCC2(CC1)OCCO2,834
2,CN(c1cccc(C(F)(F)F)c1)S(=O)(=O)c1cc2n(c1)CCCNC2=O,759
3,CNC(=O)C1CN(S(=O)(=O)c2ccc(C)cc2)CC12CCCC2 (stereo not drawn),596
4,CCOC1CCN(C(=O)NC2CCCC2)CC1,698
5,CN1CCC(NC(=O)C2CCc3sc(C(=O)N4CCCCCC4)cc3C2)CC1 (stereo not drawn),612
6,C=CCNC(=O)N1CCCN(C2=NS(=O)(=O)C(c3cccc(Cl)c3)=C2C)CC1,773
7,Cc1cccc(NS(=O)(=O)c2ccc(-c3c(C)noc3C)cc2)c1C,997
8,CC1CCN(S(=O)(=O)c2cc(-c3nnc(C4CC4)o3)co2)CC1,945
9,CC(C)c1ccc(NC(=O)C2CCCN(c3ccc(=O)n(-c4cccc(Cl)c4)n3)C2)cc1 (stereo not drawn),1120
10,CCc1ccc(NC(=O)Cn2nc(N3CCSCC3)c3ccccc3c2=O)cc1,1040
11,CC(=O)c1cccc(NC(=O)c2noc3c2CCCC3)c1,874
12,CC(C)Cn1cc(CCNC(=O)Nc2ccc(F)c(Cl)c2)c2cccnc21,912
13,Cc1ccc(CN2C(=O)CN(S(C)(=O)=O)CC2(C)C(=O)NCc2ccc(F)cc2)cc1 (stereo not drawn),836
14,O=C(c1cccs1)N1CCC(F)(C(=O)NC2CC2)CC1,634
15,Cc1ncc2c(SCC(=O)NCc3ccc(F)cc3F)ncnc2n1,579
16,CC1=C(c2ccc(C(C)C)cc2)S(=O)(=O)N=C1N1CCC(C(=O)NCCN2CCCC2)CC1,693
17,COc1ccc(-c2cn3c(CC(=O)N4CCN(c5ccc(F)cc5)CC4)csc3n2)cc1OC,743
18,Cc1noc(-c2nn(C)c3c2CN(C(=O)c2cc(F)ccc2F)CC3)n1,737
19,COc1cc([C@H]2c3cc4c(cc3[C@@H](O)[C@H](CO)[C@H]2C(=O)Nc2ccccc2)OCO4)cc(OC)c1OC,730

# Further lines, results first:
row,RP-LC retention time [s],Compound
1,704,Cc1c(Cl)cccc1-c1ccc(CNCCc2ccc(S(N)(=O)=O)cc2)o1
2,672,Cn1cc(-c2ccncc2)cc1C(=O)NCc1ccccc1C(F)(F)F
3,596,Cc1ccccc1NC(=O)Cn1c(N)nc(C)c(C)c1=O
4,776,O=C(Nc1ccccc1Cl)N1CCC(N2CCN(Cc3ccc(F)cc3)C(=O)C2=O)CC1
5,1150,CCc1ccc(-c2nc(-c3ccc4nnn(C)c4c3)no2)cc1
6,612,O=C1NCCCCCCN[C@H]2C[C@H](C(=O)N3CCc4ccccc4C3)C[C@@H]12
7,804,O=C(Cn1nc(N2CCOCC2)c2ccccc2c1=O)Nc1ccccc1C(F)(F)F
8,934,O=C(NCc1ccccc1Cl)c1nnc(-c2ccc(S(=O)(=O)N3CCCC3)cc2)o1
9,826,CC1CN(C(=O)Cn2cc(SCC(=O)NC3CCCC3)c3ccccc32)CC(C)O1 (stereo not drawn)
10,859,O=C(C1CCN(S(=O)(=O)c2ccc(-c3noc(C4CC4)n3)cc2)CC1)N1CCCC1
11,867,CN1C(=O)Cc2cc(S(=O)(=O)NCc3ccc4c(c3)CCN4C(=O)c3ccc(Cl)cc3)ccc21
12,852,Cc1ccc(CNC(=O)c2nnc(-c3ccc(S(=O)(=O)N4CCCC4)cc3)o2)o1
13,635,CC(C)CN1CCN(Cc2nc(-c3ccc(N4CCSCC4)nc3)no2)CC1
14,1130,CCN1C(=O)C2(CCN(S(=O)(=O)c3ccc(C)c(C)c3)CC2)c2ccccc21
15,682,Cc1nnc2c(=O)n(CC(=O)N3CCN(c4ccccc4)CC3)c3cccnc3n12
16,790,Cc1noc2nc(CCC(=O)NC(C)c3ccccc3)nc(N3CCCC3)c12 (stereo not drawn)

row,RP-LC retention time [s],Compound
1,792,O=C(NC1CCc2ccccc21)C1CCN(C(=O)c2ncn3c2COC(c2ccc(F)cc2)C3)CC1 (stereo not drawn)
2,818,Cc1cc(=O)n(CC(=O)NCc2ccccc2Br)c(N2CCc3ccccc3C2)n1
3,684,O=C(NCCCN1CCCCC1)C1CCCN(c2ncc(-c3cccc(F)c3)cn2)C1 (stereo not drawn)
4,610,C[C@H]([C@H](C)N1CC(=O)NC(=O)C1)N1CC(=O)NC(=O)C1
5,997,COc1ccc(-c2ncc3c(n2)CCN(S(=O)(=O)c2cccs2)C3)cc1
6,1270,CCc1nc(-c2ccc(-c3noc(CN4C(=O)COc5ccc(Cl)cc54)n3)cc2)cs1
7,760,O=C(Cc1cccn1-c1ccc(F)cc1)N1CCOCC1
8,970,CCOc1ccc(Cc2nc(-c3ccc4c(c3)nc(C)c(=O)n4C)no2)cc1OCC
9,1200,O=C(NCCC1=CCCCC1)C1CCCCN1S(=O)(=O)c1ccc(Cl)cc1 (stereo not drawn)
10,1020,CC(C)(C)c1ccc(O)c(CN(Cc2cc(C(C)(C)C)ccc2O)C2CCCCC2)c1
11,866,Cc1ccc(-c2nc3ncccn3c2Nc2cc(C)cc(C)c2)cc1
12,912,COc1ccc(OC)c(NC(=O)N2CCCC(C)(C(=O)NCc3ccccc3C)C2)c1 (stereo not drawn)
13,683,COc1ccc(CCNC(=O)C2CCN(c3ncnc4c3oc3ccccc34)CC2)cc1OC
14,716,Cc1cc(C)n(CCNC(=O)NC(c2ccccc2)c2ccccc2)n1
15,849,COc1cccc(CCN2CC(=O)N(c3cccc(C)c3)[C@@H]3CS(=O)(=O)C[C@@H]32)c1
